Like-named read-outs stand apart in the source and are kept apart here.
How the values were obtained:
[1] = test system: P. falciparum female gametocytes; parameters: method as in Miguel-Blanco et al 2017; conditions: ref Miguel-Blanco et al 2017, read-out: Pf FGAA IC50, cited from earlier work
[2] = test system: P. falciparum female gametocytes; assay: P. falciparum female gametogenesis assay (Pf FGAA); conditions: 1: YES, 0: NO
HepG2 cells [3] = conditions: HepG2 value reported with Pf FGAA screen; ref Miguel-Blanco et al 2017; cited from earlier work
HepG2 cells [4] = assay: HepG2 cytotoxicity assay; conditions: unified HepG2 cytotoxicity across the three screens
Procedure, shortened: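 Cells at 2,500 per well in MEM with 10% fetal bovine serum and 1% NEAA were exposed to test compounds for 48 h at 37°C, 5% CO2. Viability was read by fluorescence, with percent inhibition calculated against 50 μM doxorubicin (positive) and DMSO (negative) controls.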

| Compound | IC50 ([1]; TCAMS library screen) [nM] | Is compound selective in assay? Pf FGAA active? [2] | HepG2 cytoxicity (Pf FGAA screen) (HepG2 cells [3]) [µM] | IC50 [1] [nM] | Is compound selective in assay? Pf FGAA active? ([2]; >10-fold selectivity over cytotox) | Unified cytotox (HepG2 cells [4]) [µM] |
| --- | --- | --- | --- | --- | --- | --- |
| CCCC(=O)NC(c1ccc(C)cc1)c1ccc2cccnc2c1O (stereo not drawn) [TCMDC-123605] | 1730 | 0 (0: NO) | 9.22 |  |  |  |
| Cc1ccc(-c2nc3cc(NC(=O)c4ccc([N+](=O)[O-])o4)ccc3o2)cc1Cl [TCMDC-123657] | 1350 | 0 (0: NO) | 1.72 |  |  |  |
| Cc1ccnc(NC(c2ccc(Cl)c([N+](=O)[O-])c2)c2ccc3cccnc3c2O)c1 (stereo not drawn) [TCMDC-123691] | 1480 | 1 (1: YES) | 23.45 |  |  |  |
| N#CC(c1ccc(Br)cc1)c1ccc2c(C(F)(F)F)cc(C(F)(F)F)nc2n1 (stereo not drawn) [TCMDC-123754] | 1160 | 0 (0: NO) | 2.32 |  |  |  |
| FC(F)(F)c1cnc(Sc2nnc(-c3ccncc3)o2)c(Cl)c1 [TCMDC-123767] | 160 | 1 (1: YES) | >100 |  |  |  |
| OC1CCN(c2cc(-c3ccccn3)nc(-c3ccccn3)n2)CC1 [TCMDC-123786] | 1540 | 0 (0: NO) | 14.14 |  |  |  |
| COc1ccc(-c2csc3ncnc(Cl)c23)cc1 [TCMDC-123805] | 1460 | 0 (0: NO) | 0.55 |  |  |  |
| Clc1ccc(-c2csc3ncnc(Cl)c23)cc1 [TCMDC-123811] | 1570 | 1 (1: YES) | 94.46 |  |  |  |
| O=C(Nc1nc(-c2ccccn2)cs1)c1ccc(Br)s1 [TCMDC-123868] | 1160 | 1 (1: YES) | 37.44 |  |  |  |
| CCCC(=O)NC(c1ccc(C(C)C)cc1)c1ccc2cccnc2c1O (stereo not drawn) [TCMDC-123884] | 1540 | 1 (1: YES) | >100 |  |  |  |
| CCOc1ccc(-n2nc3c(Cl)nnc(-c4ccccc4)c3c2-c2ccccc2)cc1 [TCMDC-123899] | 940 | 1 (1: YES) | >100 |  |  |  |
| OCCN1CCN(c2ccc(Nc3ccnc4cc5ccccc5cc34)cc2)CC1 [TCMDC-123915] | 3340 | 0 (0: NO) | 5.43 |  |  |  |
| CCc1cc2c(Sc3nnc(N)s3)ncnc2s1 [TCMDC-123993] | 730 | 1 (1: YES) | 32.30 |  |  |  |
| Cc1cc(I)ccc1Nc1nc2nonc2nc1Nc1ccc(I)cc1C [TCMDC-124083] | 1080 | 0 (0: NO) | 0.93 |  |  |  |
| FC(F)(F)c1cccc(Nc2nc3ccccc3nc2Nc2cccc(C(F)(F)F)c2)c1 [TCMDC-124162] | 2400 | 0 (0: NO) | 17.68 |  |  |  |
| CC(C)C1=CC(=NOS(=O)(=O)c2ccccc2)C=C(C(C)C)C1=O [TCMDC-124172] | 880 | 1 (1: YES) | 21.70 |  |  |  |
| CCN1CCN(c2ccc(Nc3c4ccccc4nc4ccccc34)cc2)CC1 [TCMDC-124255] | 1000 | 0 (0: NO) | 4.57 |  |  |  |
| Cc1ccc(Cl)c2sc(N3CCN(C(=O)c4ccc([N+](=O)[O-])o4)CC3)nc12 [TCMDC-124311] | 1440 | 1 (1: YES) | 25.79 |  |  |  |
| Cc1ccc(C)c2sc(N3CCN(C(=O)c4ccc([N+](=O)[O-])o4)CC3)nc12 [TCMDC-124315] | 1120 | 1 (1: YES) | 37.65 |  |  |  |

| Compound | IC50 ([1]; TCAMS library screen) [nM] | Is compound selective in assay? Pf FGAA active? [2] | HepG2 cytoxicity (Pf FGAA screen) (HepG2 cells [3]) [µM] | IC50 [1] [nM] | Is compound selective in assay? Pf FGAA active? ([2]; >10-fold selectivity over cytotox) | Unified cytotox (HepG2 cells [4]) [µM] |
| --- | --- | --- | --- | --- | --- | --- |
| O=C(c1ccc([N+](=O)[O-])o1)N1CCN(c2nc3c(Cl)cccc3s2)CC1 [TCMDC-124316] | 1100 | 1 (1: YES) | 41.96 |  |  |  |
| CC(C)(C)Nc1cc(C2CC2)nc(-c2ccccn2)n1 [TCMDC-124453] | 100 | 1 (1: YES) | >100 |  |  |  |
| O=C(Nc1ccc([N+](=O)[O-])cc1)Nc1cc(OCC(F)(F)F)cc(OCC(F)(F)F)c1 [TCMDC-124533] | 1160 | 0 (0: NO) | 6.24 |  |  |  |
| CC1Cc2ccccc2N1S(=O)(=O)c1cccc(C(=O)Nc2nc(-c3ccccn3)cs2)c1 (stereo not drawn) [TCMDC-124559] | 340 | 1 (1: YES) | 50.12 |  |  |  |
| c1ccn2c(Sc3ncnc4sccc34)ncc2c1 [TCMDC-124602] | 240 | 1 (1: YES) | >100 |  |  |  |
| Cl.Clc1cc(Br)ccc1-c1ccc(CNCC2CCNCC2)o1 [TCMDC-124617] | 720 | 0 (0: NO) | 4.37 |  |  |  |
| CN1CCC(N2CCC(Oc3cccc(C(=O)NCCCC4CCCC4)c3)CC2)CC1 [TCMDC-124677] | 1470 | 0 (0: NO) | 4.90 |  |  |  |
| Cc1ccc2c(c1)c(C1CCN(C(=O)c3ccc([N+](=O)[O-])o3)CC1)cn2C [TCMDC-124787] | 2120 | 1 (1: YES) | 28.85 |  |  |  |
| Cc1sc2nc(CN3CCCC3)nc(-n3c(NCCO)nc4ccccc43)c2c1C [TCMDC-124811] | 7050 | 0 (0: NO) | 25.73 |  |  |  |
| C=CCc1cccc(CN2CCC(c3cc(=O)[nH]c(-c4ccccn4)n3)CC2)c1O [TCMDC-124851] | 1740 | 0 (0: NO) | 11.49 |  |  |  |
| CCCc1cc(=O)[nH]c(-n2nc(C)cc2NC(=O)CC(c2ccccc2)c2ccccc2)n1 [TCMDC-124940] | 1300 | 1 (1: YES) | >100 |  |  |  |
| COc1ccc(NC(=O)Nc2ccc(Nc3nc(C)cc(N4CCCC4)n3)cc2)cc1 [TCMDC-124958] | 1080 | 1 (1: YES) | 11.89 |  |  |  |
| O=C(c1ccc([N+](=O)[O-])o1)N1CCN(c2nc3c(F)cc(F)cc3s2)CC1 [TCMDC-125149] | 1310 | 1 (1: YES) | >100 |  |  |  |
| CNCCCNCc1ccc(-c2ccc(F)c(Cl)c2)o1.Cl [TCMDC-125237] | 1870 | 0 (0: NO) | 10.60 |  |  |  |
| COc1cc(OC)cc(C(=O)Nc2nc(-c3ccccn3)cs2)c1 [TCMDC-125345] | 360 | 1 (1: YES) | 39.82 |  |  |  |
| CC(Nc1cc(-c2ccccn2)nc(-c2ccccn2)n1)c1ccccc1 (stereo not drawn) [TCMDC-125420] | 210 | 1 (1: YES) | 6.18 |  |  |  |
| c1ccc(CNc2cc(-c3ccccn3)nc(-c3ccccn3)n2)cc1 [TCMDC-125421] | 320 | 1 (1: YES) | 13.04 |  |  |  |
| Fc1ccc2nc(Nc3nc(-c4ccccn4)cs3)sc2c1 [TCMDC-125540] | 54.3 | 1 (1: YES) | 58.31 |  |  |  |
| CN(C)CCN1CCN(CCCN2c3ccccc3Sc3ccc(C(F)(F)F)cc32)CC1.Cl [TCMDC-142257] |  |  |  | 5250 | 1 (1: YES) | 77.62 |

— article PMC6753678, “Fueling Open Innovation for Malaria Transmission-Blocking Drugs: Hundreds of Molecules Targeting Early Parasite Mosquito Stages” (Frontiers in Microbiology, 2019)
